{"source": "patent US9540354B2", "about": "“Diamide inhibitors of cytochrome P450” (SEQUOIA PHARMACEUTICALS, INC., priority 2008, dated 2017)", "data": [{"smiles": "Cc1cc(CC(C(=O)NCc2ccc3occc3c2)C(=O)N(CC(C)C)CC(C)C)n(C)n1", "note": "(stereo not shown) [Cmpd. 9]", "values": [{"measurement": "melting point", "value": "85.5 to 86", "unit": "°C"}]}]}
